Reference: paper PMC11154727, “Systematic Studies on the Anti-SARS-CoV-2 Mechanisms of Tea Polyphenol-Related Natural Products” (ACS Omega, 2024)
Read-outs that look alike come from different tables or passages of the source.

Columns and labels:
[1] = test system: Brazil P.1 Gamma mutant SARS-CoV-2; type: cell-based; conditions: read-out: EC50 γ strain
[2] = test system: UK B.1.1.7 N501Y Alpha SARS-CoV-2; type: cell-based; conditions: read-out: EC50 α strain
RBD/ACE2 interaction [3] = biological target: T1, RBD/ACE2 interaction (UniProt P0DTC2+Q9BYF1, L452R/T478K); test: cell-based
RBD/ACE2 interaction [4] = biological target: T1, RBD/ACE2 interaction; conditions: read-out: IC50 RBD/ACE2

Molecule: O=C(O[C@@H]1Cc2c(O)cc(O)cc2O[C@@H]1c1cc(O)c(=O)c2c(O)c(O)cc([C@H]3Oc4cc(O)cc(O)c4C[C@H]3OC(=O)c3cc(O)c(O)c(O)c3)c2c1)c1cc(O)c(O)c(O)c1 [TF3, theaflavin-3,3′-digallate]
- EC50 [1]: 0.4 ± 0.2 µM
- EC50 [2]: 0.5 µM

Molecule: O=c1c(O)cc([C@H]2Oc3cc(O)cc(O)c3C[C@H]2O)cc2c([C@H]3Oc4cc(O)cc(O)c4C[C@H]3O)cc(O)c(O)c12 [theaflavin]
- IC50 (RBD/ACE2 interaction [3]): 12.3 ± 1.1 µM

Molecule: proanthocyanidin
- IC50 (RBD/ACE2 interaction [4]): 12.4 ± 1.1 µM
